One assay concerns the target hSTING-CTD (Homo sapiens (Human), UniProt Q86WV6). Description: Human STING protein FP competition concentration response assay. It is filed as binding. As to the method: A validated STING ligand, such as c-di-GMP, which is labeled with a read-out signal (e.g., a fluorescence signal such as fluorescein), is mixed with STING-CTD (e.g., mouse STING-CTD or human STING-CTD) with or without the presence of a compound of the present application. Changes in the read-out signal are measured (e.g., by fluorescence anisotropy) to determine the binding of the compound to STING-CTD.
Fluorescein labeled c-di-GMP, a validated STING ligand, was mixed with recombinant hSTING-CTD in a homogenous assay format with or without the presence of a compound of the present application (titrated) in PBS in black 384-well plates (10 μL per well). The fluorescence anisotropy was determined on a PerkinElmer EnVisions multi-mode plate reader. The plate can be read immediately after mixing the reagents or after a few hours without change of signals.
• 1) hSTING (Supplier: HDB) • 2) 2′-Fluo-AHC-c-di GMP (BIOLOG #F009) • 3) 2′3′-cGAMP (BIOLOG #C161) • 4) DMXAA (InvivoGen #tlrl-dmx) • 5) DMSO (Sigma, #D5879-100 mL) • 6) 10×PBS(HDB #MCP-020) • 7) Assay plate, 384-well black plate, solid black bottom (Greiner #784076) • 8) Compound dilution intermediate plate, 384 LDV plate (Labcyte #LP-0200) • 9) Liquid handler, ECHO550 (Labcyte) • 10) Liquid handler, Bravo (Aglient) • 11) Reader, Envision (PerkinElmer) • 12) Centrifuge (Eppendorf) • 13) Multichannel Pipette (Raining) • 14) 10 ml Reservoir (Corning) • 15) 15 ml centrifuge tube (Corning) • 16) Adhesive Plate seals (BioRad) Compound Preparation • a) Containers of each compound were centrifuged at 1000 rpm for 5 min. • b) Compounds were dissolved in DMSO at 30 mM. • c) Compounds were sufficiently vortexed, and centrifuged at 1000 rpm for 1 min. • d) 16 uL of the compound solution was transferred into a LDV Compound Plate. • e) 2-fold serial dilutions of the compound solution were made with DMSO, and 14 concentrations were made in the 384-well LDV Compound Plate. • f) The LDV plate was spun at 1000 rpm for 60 sec and sealed with foil (stored at −20° C. if not used immediately). • g) 335 nL of each compound from the LDV Compound Plate was transferred to Assay Plate (ECHO550). Probe Preparation • a) 200 uM probe stock (2′-Fluo-AHC-c-diGMP) was diluted by ddH2O to 6 uM working concentration. • b) 10-12 uL 6 uM working solution of probe was transferred into the LDV plate. • c) 50 nL per well 6 uM working solution of probe was transferred from the LDV plate to each well of the empty Assay Plate (Greiner 784076) by ECHO550 Buffer mode. • d) Probe final concentration was 30 nM when assay system was 10 uL. • e) The Assay Plate was spun at 1000 rpm for 1 min. Compound Addition • a) After the LDV Compound Plate was prepared, 335 nL compound (ECHO550 DMSO mode) was transferred from the LDV Compound Plate into the Assay Plate (Greiner 784076) containing 50 nL probe in each well according to the Assay Plate layout. • b) DMSO final concentration was 3.35% when assay system was 10 uL. • c) The Assay Plate was spun at 1000 rpm for 1 min. Protein Addition • a) Aliquot of hSTING protein was thawed on ice, briefly to generate uniform solution. • b) 55 uM stock protein was diluted in 1×PBS assay buffer to generate 10 uM final solutions. • c) For test compound and ZPE wells, 10 μL per well of 10 uM protein solutions was added into the Assay Plate containing both the probe and test compounds or DMSO using multichannel pipette. • d) For HPE wells, 10 μL/well of 1×PBS assay buffer instead of protein was added into the Assay Plate containing both the probe and DMSO using multichannel pipette. • e) The Assay Plate was spun at 1000 rpm for Imin. • f) The Assay Plate was incubated at r.t. for 10-20 min.
The EnVision plate reader was used to record the FA value of each well immediately after mixing the reagents or after a few hours without change of signals.
The raw data and calculated data (Fluorescence anisotropy (FA)) was exported from the EnVision reader. […]

In the next assay the target is hSTING-WT (Homo sapiens (Human), UniProt Q86WV6, H232R). Kind of assay: Radiometric filtration binding competition assay, hSTING-WT.
Another assay concerns the target mSTING-R232 (Mus musculus, UniProt Q3TBT3). Description: STING differential scanning fluorimetry (DSF) assay, mouse STING. Particulars: net shift in melting temperature.
For the next assay, the target named is hSTING-R232 (Homo sapiens (Human), UniProt Q86WV6, H232R). Kind of assay: STING differential scanning fluorimetry (DSF) assay, WT human STING. Particulars: WT (R232) human STING aa140-379, net shift in melting temperature. On the technique in general: Differential scanning fluorimetry follows unfolding on heating by fluorescence.
For the next assay, the target named is STING protein (Homo sapiens (Human), UniProt Q86WV6, H232R). Description: Cell based reporter assay of IRF activation (IRF-luciferase), THP1-dual-KI R232. The note with it: read-out: THP1-dual-KI R232_IRF(Luciferase)_Activity Maximum measured (%). Background: Reporter assays use an easily measured gene product as a stand-in for the process of interest.

Results on 16 compounds are retold here after patent US11414387B2, “Oxoacridinyl acetic acid derivatives and methods of use” (Stingthera, Inc., priority 2017, dated 2022).

hSTING-R232, sequence (Q86WV6 140-379 H232R): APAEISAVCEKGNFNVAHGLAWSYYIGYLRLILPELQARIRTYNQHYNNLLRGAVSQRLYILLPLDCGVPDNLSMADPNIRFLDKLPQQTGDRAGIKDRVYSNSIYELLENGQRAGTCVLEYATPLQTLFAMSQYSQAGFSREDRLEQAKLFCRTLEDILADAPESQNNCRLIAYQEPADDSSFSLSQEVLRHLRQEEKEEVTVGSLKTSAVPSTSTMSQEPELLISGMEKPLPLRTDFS
hSTING-WT, sequence (Q86WV6 140-379 H232R): as above
STING protein, sequence (Q86WV6 whole entry H232R): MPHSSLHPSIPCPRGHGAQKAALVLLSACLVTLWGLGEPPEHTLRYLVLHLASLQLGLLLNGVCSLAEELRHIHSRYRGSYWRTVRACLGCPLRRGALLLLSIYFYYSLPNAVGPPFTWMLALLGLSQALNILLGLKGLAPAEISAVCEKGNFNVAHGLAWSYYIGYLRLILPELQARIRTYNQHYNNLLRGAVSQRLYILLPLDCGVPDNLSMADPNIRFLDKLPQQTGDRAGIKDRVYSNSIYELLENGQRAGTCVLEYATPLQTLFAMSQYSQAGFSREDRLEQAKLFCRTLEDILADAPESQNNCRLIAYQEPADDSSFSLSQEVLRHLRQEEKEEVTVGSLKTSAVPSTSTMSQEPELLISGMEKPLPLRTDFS
hSTING-CTD, sequence (Q86WV6 135-379): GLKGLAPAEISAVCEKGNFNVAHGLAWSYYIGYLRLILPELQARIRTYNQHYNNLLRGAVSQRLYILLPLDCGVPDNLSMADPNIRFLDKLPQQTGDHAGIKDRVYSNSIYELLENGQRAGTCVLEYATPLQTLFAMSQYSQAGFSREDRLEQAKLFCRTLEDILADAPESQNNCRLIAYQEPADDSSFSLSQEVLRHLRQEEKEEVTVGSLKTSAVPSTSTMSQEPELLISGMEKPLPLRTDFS
Experimental for hSTING-R232: (§1) A STING DSF assay was performed to determine protein thermostability shift in response to small molecule ligand binding. A STING thermostability shift assay based on differential scanning fluorimetry was used to measure (1) the net shift in melting temperature (ΔTm)between the apo and ligand-bound states of the STING protein and (2) the concentration of the thermal denaturation transition (EC50) as a surrogate measure of binding affinity (K). […] Protein in assay buffer was transferred to a 384 well plate and incubated with the hydrophobic fluorescent dye SYBR Orange. A temperature ramp was applied to the plate and the resulting dye fluorescence was plotted as a function of temperature. The first derivative of this function (dF/dT) was then used to extrapolate the melting temperature of the protein at various concentrations of compound and determine the thermal denaturation profile of a protein/compound complex.
(§2) • 1. Protein construct (affinity tag removal vs SUMO-fusion construct) • 2. Protein concentration • 3. Dye concentration • 4. Buffer • 5. Thermal ramp velocity • 6. DMSO tolerance • 7. Compound titration parameters • 8. […] 5 μM purified Target STING Protein • 3. 8 μM Sypro Orange Dye • 4. Buffer: 100 mM NaCl, 30 mM HEPES, pH 7.5 • 5. Thermal Ramp: 0.5° C./min • 6. <1% DMSO • 7. 11 point, 2 fold dilution, duplicate, 300 μM high concentrations • 8.
Experimental for mSTING-R232: as §1, §2

What is called IC50 is the concentration needed to halve the response being measured. Read a low IC50 as higher potency. In turn, `COc1ccc2c(=O)c3ccc(Cl)c(Cl)c3n(CC(=O)O)c2c1` [Compound 95] came in with an IC50 on hSTING-CTD of 100 to 500 µM.

`Cc1ccc2c(c1C)c(=O)c1ccc(Cl)c(Cl)c1n2CC(=O)O` [Compound 96] returned an IC50 on hSTING-CTD of 100 to 500 µM.

At hSTING-CTD, `N#Cc1ccc2c(=O)c3ccccc3n(CC(=O)O)c2c1Cl` [Compound 107] displayed an IC50 of less than 100 µM.

Take `Cc1ccc2c(=O)c3ccc(Cl)c(Br)c3n(CC(=O)O)c2c1` [Compound 112]: the IC50 at hSTING-CTD was less than 100 µM; on hSTING-WT, 20 to 100 µM. The “MOUSE DSF_6xHIS-SUMO Tm Shift (° C.)” value on mSTING-R232 is reported as “C (“C” = 5-15° C.)”. In addition, the “WT_DSF_hSWAT Tm Shift (° C.)” value at hSTING-R232 is given as “B (“B” = 0-2° C.)”. Besides, the Emax on STING protein fell in the range of 5 to 25%.

With `O=C(O)Cn1c2cc(C3=CCCC3)ccc2c(=O)c2ccc(Cl)c(Cl)c21` [Compound 114], at hSTING-CTD, the IC50 is less than 100 µM.

Turning to `O=C(O)Cn1c2cc(C3=CCCCC3)ccc2c(=O)c2ccc(Cl)c(Cl)c21` [Compound 116], the IC50 at hSTING-CTD was less than 100 µM.

In the case of `O=C(O)Cn1c2cc(NC3CCC3)ccc2c(=O)c2ccc(Cl)c(Cl)c21` [Compound 117], the IC50 on hSTING-CTD is less than 100 µM.

On hSTING-CTD, `O=C(O)Cn1c2cc(NC3CCCC3)ccc2c(=O)c2ccc(Cl)c(Cl)c21` [Compound 118] registered an IC50 of less than 100 µM.

In the case of `CC(C)Nc1ccc2c(=O)c3ccc(Cl)c(Cl)c3n(CC(=O)O)c2c1` [Compound 119], the IC50 at hSTING-CTD is less than 100 µM.

Consider `Cc1ccc2c(c1)c(=O)c1ccc(Cl)c(Cl)c1n2CC(=O)O` [Compound 121], for which the IC50 at hSTING-CTD was 500 to 1000 µM.

Regarding `O=C(O)Cn1c2cc(NC3CCCCCC3)ccc2c(=O)c2ccc(Cl)c(Cl)c21` [Compound 122], the results for the IC50 on hSTING-CTD and at hSTING-WT were less than 100 µM and 20 to 100 µM, respectively. The “MOUSE DSF_6xHIS-SUMO Tm Shift (° C.)” value on mSTING-R232 was “D (“D” > 15° C.)”. Also, the “WT_DSF_hSWAT Tm Shift (° C.)” value at hSTING-R232 was “C (“C” = 2-7° C,)”. Also, the Emax on STING protein is greater than 50%.

Take `CCNc1ccc2c(=O)c3ccc(Cl)c(Cl)c3n(CC(=O)O)c2c1` [Compound 123]: the IC50 at hSTING-CTD was less than 100 µM.

As to `O=C(O)Cn1c2ccc(-c3ccccc3)cc2c(=O)c2ccc(Cl)c(Cl)c21` [Compound 125], the IC50 is less than 100 µM at hSTING-CTD and 20 to 100 µM at hSTING-WT. The “MOUSE DSF_6xHIS-SUMO Tm Shift (° C.)” value on mSTING-R232 is “B (“B” = 0-5° C.)”. Besides, the “WT_DSF_hSWAT Tm Shift (° C.)” value on hSTING-R232 is reported as “C (“C” = 2-7° C,)”. Also, the Emax on STING protein was less than 5%.

On to `COc1c(Cl)ccc2c(=O)c3ccc(C4CCNCC4)cc3n(CC(=O)O)c12` [Compound 226], for which the IC50 at hSTING-CTD is greater than 1000 µM; on hSTING-WT it was 100 to 300 µM. In addition, the “WT_DSF_hSWAT Tm Shift (° C.)” value on hSTING-R232 was “C (“C” = 2-7° C,)”.

Consider `CC(C)(C)c1ccc2c(=O)c3ccc(Cl)c(OC4CCC4)c3n(CC(=O)O)c2c1` [Compound 228], for which the IC50 at hSTING-CTD was greater than 1000 µM; at hSTING-WT, 20 to 100 µM. The “WT_DSF_hSWAT Tm Shift (° C.)” value at hSTING-R232 is listed as “C (“C” = 2-7° C,)”. Also, the Emax on STING protein was less than 5%.

Regarding `COCc1c(Cl)ccc2c(=O)c3ccccc3n(CC(=O)O)c12` [Compound 229], the figures for the IC50 at hSTING-CTD and on hSTING-WT were less than 100 µM and greater than 300 µM, respectively. For the same compound, at hSTING-R232, the “WT_DSF_hSWAT Tm Shift (° C.)” value was “B (“B” = 0-2° C.)”. For the same compound, the Emax at STING protein was less than 5%.
